Measured values reported in patent publication US8486962B2, “Antifungal agents” (F2G Ltd., priority 2005, dated 2013).
Converted amounts (≈) assume the structure as drawn.

Experiments:
[1] = tested on: Aspergillus flavus; experiment: MIC, YAG medium, Aspergillus flavus; type: cell-based; details: YAG medium; for MIC: Aspergillus flavus, read-out: MIC A Flavus 01
Procedure, shortened: (§1)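 MICs in mg/L are lowest drug levels suppressing growth (OD 485 nm) relative to drug-free wells: Aspergillus in YAG at >70%, 24 hrs; Candida albicans in buffered RPMI at >80%, 24-48 hrs. Both incubated at 35° C across 50-0.05 mg/L doubling dilutions.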

[2] = tested on: A Terreus 49; experiment: MIC, YAG medium, A Terreus 49; type: cell-based, Aspergillus terreus; details: YAG medium; for MIC: Aspergillus terreus, read-out: MIC A Terreus 49
Experimental: Measurement of Minimum Inhibitory Concentrations (MICs)
Between 1 and 5 mgs of compound were accurately weighed out into a sterile Eppendorf tube. The compound was dissolved in DMSO to give a solution containing 5 mg/ml. Tubes were stored at −20° C. until required.
On the day of testing thawed solutions were vortex mixed to ensure homogeneity. 30 μl of solution was removed and added to 570 μl of sterile water in a separate sterile Eppendorf. The thoroughly mixed solution was used to prepare a series of doubling dilutions in water, in a deep well plate. Eleven replicate plates were prepared using a Minitrak by aspirating 20 μl from each well into eleven clear polystyrene 96 well plates.
Spores of Aspergillus spp (Aspergillus fumigatus, Aspergillus terreus, Aspergillus niger and Aspergillus flavus) were harvested from cultures grown on Sabarauds agar for 5 days, and resuspended in PBS/Tween 80 to approx 1×10^7 cfu/ml Other filamentous fungi (Fusarium solani, Scedosporium spp., Trichophyton spp., Absidia corymbifera), were grown on Sabarauds agar for 2-10 days and spores/hyphae resuspended in PBS/Tween to give approx 1×10^7 cfU/ml. Candida species (Candida albicans, Candida glabrata, Candida krusei, Candida parapsilosis and Candida tropicalis) were grown on Sabarauds agar, cells were harvested from the agar using a sterile loop and resuspended in PBS/Tween 80 to approx 1×10^6 cfu/ml. Each organism suspension was diluted in RPMI medium, containing 2% glucose and 0.135M MOPS buffer (pH7.0) to 2×10^4 cfu/ml for Aspergillus spp and other filamentous fungi and 2×10^3 cfu/ml for yeast. 80 μl of an organism suspension was added to each well of the plate containing drug dilutions.
This produced MIC plates with a drug range 50-0.05 mg/L and organism inocula of 1-2×10^4 cfu/ml for Aspergillus spp and other filamentous fungi and 1-2×10^3 cfu/ml for yeasts. All plates were incubated for 24-48 hrs at 35° C. Growth was assessed by monitoring the optical density at 485 nm for each well. The MIC of a compound is the lowest drug concentration that inhibits growth of an organism by >80% compared with a drug free control. MICs are recorded as mg/L. Other growth media can be used for susceptibility testing, and the activity of the described compounds can also be assessed in a medium comprising, 1% glucose, 1% ammonium chloride and 0.5% yeast extract (YAG medium). To perform MIC tests in this medium, dilutions of compounds are prepared in microtitre plates as described above. Fungal strains to be tested are grown and harvested in an identical manner to that described above, each organism suspension is then diluted in YAG medium to 2×10^4 cfu/ml for Aspergillus spp and other filamentous fungi and 2×10^3 cfu/ml for yeast. 80 μl of an organism suspension was added to each well of the plate containing drug dilutions. This produced MIC plates with a drug range 50-0.05 mg/L and organism inocula of 1-2×10^4 cfu/ml for Aspergillus spp and other filamentous fungi and 1-2×10^3 cfu/ml for yeasts. All plates were incubated for 24 hrs at 35° C. Growth was assessed by monitoring the optical density at 485 nm for each well. The MIC of a compound is the lowest drug concentration that inhibits growth of an organism by >70% compared with a drug free control. MICs are recorded as mg/L. In cases where the MIC of an organism is […]0.05 mg/L the MIC is repeated using a concentration range of 0.5-0.0005 mg/L. MIC tests in YAG medium have more clear-cut endpoints and have slightly lower MICS than those performed in RPMI medium.
The following organisms were tested: Aspergillus fumigatus AF293 and Aspergillus fumigatus AF210, Aspergillus niger, Aspergillus terreus, Aspergillus favus, Candida albicans, Candida krusei, Candida tropicalis, Candida glabrata, Candida parapsilosis, Trichophyton rubrum, Trichophyton mentagrophytes, Scedosporium prolificans, Scedosporium apiospermum, Absidia corymbifera, Fusarium solani.

[3] = tested on: Aspergillus fumigatus AF210; experiment: MIC, YAG medium, Aspergillus fumigatus AF210; type: cell-based; details: YAG medium; for MIC: Aspergillus fumigatus, AF210, read-out: MIC A Fum. 210
Procedure, shortened: as §1

[4] = tested on: Aspergillus niger; experiment: MIC, YAG medium, Aspergillus niger; type: cell-based; details: YAG medium; for MIC: Aspergillus niger, read-out: MIC A Niger 1
Procedure, shortened: as §1

[5] = tested on: Aspergillus terreus; experiment: MIC, YAG medium, Aspergillus terreus; type: cell-based; details: YAG medium; for MIC: Aspergillus terreus, read-out: MIC A Terreus 4
Procedure, shortened: as §1

[6] = tested on: Aspergillus fumigatus AF293; experiment: MIC, YAG medium, Aspergillus fumigatus AF293; type: cell-based; details: YAG medium; for MIC: Aspergillus fumigatus, AF293, read-out: MIC A Fum. 293
Procedure, shortened: as §1

SMILES	MIC [1] [µg/mL]	MIC [2] [µg/mL]	MIC [3] [µg/mL]	MIC [4] [µg/mL]	MIC [5] [µg/mL]	MIC [6] [µg/mL]	MIC A Flavus 01 [1] [µg/mL]	MIC A Terreus 49 [2] [µg/mL]	MIC A Fum. 210 [3] [µg/mL]	MIC A Niger 1 [4] [µg/mL]	MIC A Terreus 4 [5] [µg/mL]	MIC A Fum. 293 [6] [µg/mL]
CN(C)c1ccc(NC(=O)C(=O)c2c(-c3ccccc3)cc3ccccn23)cc1-c1ncco1 [Example 292, N-(4-Dimethylamino-3-oxazol-2-yl-phenyl)-2-oxo-2-(2-phenyl-indolizin-3-yl)-acetamide]	0.03 (≈ 0.0666 µM)	0.015 (≈ 0.0333 µM)	0.2 (≈ 0.444 µM)	0.8 (≈ 1.78 µM)	0.03 (≈ 0.0666 µM)	0.4 (≈ 0.888 µM)	–	–	–	–	–	–
COc1ccc(NC(=O)C(=NOCCCN(C)C)c2c(-c3ccccc3)cc3ccccn23)cc1 (mixture of isomers) [Example 296, 2-[(E/Z)-3-Dimethylamino-propoxyimino]-N-(4-methoxy-phenyl)-2-(2-phenyl-indolizin-3-yl)-acetamide]	–	–	–	–	–	–	12.5	6.25	>50	25	6.25	>50
COc1ccc(NC(=O)C(=O)c2c(-c3cccs3)cc3ccccn23)c(OC)c1 [Example 166, N-(2,4-Dimethoxy-phenyl)-2-oxo-2-(2-thiophen-2-yl-indolizin-3-yl)-acetamide]	0.12 (≈ 0.295 µM)	0.062 (≈ 0.153 µM)	3.1 (≈ 7.63 µM)	0.25 (≈ 0.615 µM)	0.12 (≈ 0.295 µM)	1.6 (≈ 3.94 µM)	–	–	–	–	–	–
CCOC(=O)C(C)(C)NC(=O)C(=O)c1c(-c2ccccc2)cc2ccccn12 [Example 248, 2-Methyl-2-[2-oxo-2-(2-phenyl-indolizin-3-yl)-acetylamino]-propionic acid ethyl ester]	> 50	6.25 (≈ 16.5 µM)	12.5 (≈ 33 µM)	0.4 (≈ 1.06 µM)	6.25 (≈ 16.5 µM)	12.5 (≈ 33 µM)	–	–	–	–	–	–
O=C(Nc1ccc(Nc2ncccn2)cc1)C(=O)c1c(-c2ccccc2)cc2ccccn12 [Example 276, 2-Oxo-2-(2-phenyl-indolizin-3-yl)-N-[4-(pyrimidin-2-ylamino)-phenyl]-acetamide]	0.05 (≈ 0.115 µM)	0.015 (≈ 0.0346 µM)	0.2 (≈ 0.461 µM)	0.05 (≈ 0.115 µM)	0.05 (≈ 0.115 µM)	0.1 (≈ 0.231 µM)	–	–	–	–	–	–
O=C(Nc1ccc(N2CCCC2)cc1)C(=O)c1c(-c2ccccc2)cc2ccccn12 [Example 260, 2-Oxo-2-(2-phenyl-indolizin-3-yl)-N-(4-pyrrolidin-1-yl-phenyl)-acetamide]	0.008 (≈ 0.0195 µM)	0.008 (≈ 0.0195 µM)	0.03 (≈ 0.0733 µM)	0.015 (≈ 0.0366 µM)	0.008 (≈ 0.0195 µM)	0.015 (≈ 0.0366 µM)	–	–	–	–	–	–
COC(=O)c1cccc(NC(=O)C(=O)c2c(-c3ccccc3)cc3ccccn23)c1 [Example 141, 3-[2-Oxo-2-(2-phenyl-indolizin-3-yl)-acetylamino]-benzoic acid methyl ester]	0.008 (≈ 0.0201 µM)	0.015 (≈ 0.0376 µM)	0.12 (≈ 0.301 µM)	0.25 (≈ 0.627 µM)	0.031 (≈ 0.0778 µM)	0.12 (≈ 0.301 µM)	–	–	–	–	–	–
N#Cc1cccc(-c2cc3ccccn3c2C(=O)C(=O)Nc2ccc(F)cc2F)c1 [Example 245, 2-[2-(3-Cyano-phenyl)-indolizin-3-yl]-N-(2,4-difluoro-phenyl)-2-oxo-acetamide]	0.8 (≈ 1.99 µM)	0.8 (≈ 1.99 µM)	6.25 (≈ 15.6 µM)	0.4 (≈ 0.997 µM)	0.4 (≈ 0.997 µM)	6.25 (≈ 15.6 µM)	–	–	–	–	–	–
COc1ccc(NC(=O)C(=NOCCCC(=O)O)c2c(-c3ccccc3)cc3ccccn23)cc1 (mixture of isomers) [Example 297, 4-[1-(4-Methoxy-phenylcarbamoyl)-1-(2-phenyl-indolizin-3-yl)-meth-(E/Z)-ylideneaminooxy]-butyric acid]	–	–	–	–	–	–	0.4	0.4	12.5	1.6	0.8	12.5
O=C(Nc1ccc(F)cc1F)C(=O)c1c(-c2ccccc2Cl)cc2ccccn12 [Example 277, 2-[2-(2-Chloro-phenyl)-indolizin-3-yl]-N-(2,4-difluoro-phenyl)-2-oxo-acetamide]	0.03 (≈ 0.073 µM)	0.2 (≈ 0.487 µM)	0.05 (≈ 0.122 µM)	0.03 (≈ 0.073 µM)	0.015 (≈ 0.0365 µM)	0.4 (≈ 0.974 µM)	–	–	–	–	–	–
O=C(Nc1ccc(N2CCSCC2)cc1)C(=O)c1c(-c2ccccc2)cc2ccccn12 [Example 258, 2-Oxo-2-(2-phenyl-indolizin-3-yl)-N-(4-thiomorpholin-4-yl-phenyl)-acetamide]	0.015 (≈ 0.034 µM)	0.008 (≈ 0.0181 µM)	0.015 (≈ 0.034 µM)	0.03 (≈ 0.0679 µM)	0.008 (≈ 0.0181 µM)	0.03 (≈ 0.0679 µM)	–	–	–	–	–	–
O=C(Nc1ccc(-c2ncco2)cc1)C(=O)c1c(-c2ccccc2)cc2ccccn12 [Example 268, N-(4-Oxazol-2-yl-phenyl)-2-oxo-2-(2-phenyl-indolizin-3-yl)-acetamide]	0.03 (≈ 0.0736 µM)	0.015 (≈ 0.0368 µM)	0.06 (≈ 0.147 µM)	0.015 (≈ 0.0368 µM)	0.015 (≈ 0.0368 µM)	0.1 (≈ 0.245 µM)	–	–	–	–	–	–

Further lines, results first:

MIC [1] [µg/mL]	MIC [2] [µg/mL]	MIC [3] [µg/mL]	MIC [4] [µg/mL]	MIC [5] [µg/mL]	MIC [6] [µg/mL]	MIC A Flavus 01 [1] [µg/mL]	MIC A Terreus 49 [2] [µg/mL]	MIC A Fum. 210 [3] [µg/mL]	MIC A Niger 1 [4] [µg/mL]	MIC A Terreus 4 [5] [µg/mL]	MIC A Fum. 293 [6] [µg/mL]	SMILES
0.008 (≈ 0.0216 µM)	0.002 (≈ 0.0054 µM)	0.12 (≈ 0.324 µM)	0.031 (≈ 0.0837 µM)	0.008 (≈ 0.0216 µM)	0.12 (≈ 0.324 µM)	–	–	–	–	–	–	COc1ccc(NC(=O)C(=O)c2c(-c3ccccc3)cc3ccccn23)cc1 [Example 139, N-(4-Methoxy-phenyl)-2-oxo-2-(2-phenyl-indolizin-3-yl)-acetamide]
0.03 (≈ 0.0772 µM)	0.008 (≈ 0.0206 µM)	0.12 (≈ 0.309 µM)	0.12 (≈ 0.309 µM)	0.031 (≈ 0.0798 µM)	0.5 (≈ 1.29 µM)	–	–	–	–	–	–	COc1ccc(NC(=O)C(=O)c2c(-c3ccc(F)cc3)cc3ccccn23)cc1 [Example 155, 2-[2-(4-Fluoro-phenyl)-indolizin-3-yl]-N-(4-methoxy-phenyl)-2-oxo-acetamide]
0.12 (≈ 0.312 µM)	0.062 (≈ 0.161 µM)	0.8 (≈ 2.08 µM)	0.5 (≈ 1.3 µM)	0.12 (≈ 0.312 µM)	0.8 (≈ 2.08 µM)	–	–	–	–	–	–	COc1ccc2cc(-c3ccccc3)c(C(=O)C(=O)Nc3ccc(C)cc3)n2c1 [Example 196, 2-(6-Methoxy-2-phenyl-indolizin-3-yl)-2-oxo-N-p-tolyl-acetamide]
0.015 (≈ 0.0368 µM)	0.008 (≈ 0.0196 µM)	0.03 (≈ 0.0736 µM)	0.015 (≈ 0.0368 µM)	0.015 (≈ 0.0368 µM)	0.062 (≈ 0.152 µM)	–	–	–	–	–	–	CC(C)(C#N)c1ccc(NC(=O)C(=O)c2c(-c3ccccc3)cc3ccccn23)cc1 [Example 221, N-[4-(Cyano-dimethyl-methyl)-phenyl]-2-oxo-2-(2-phenyl-indolizin-3-yl)-acetamide]
0.2 (≈ 0.52 µM)	0.1 (≈ 0.26 µM)	0.8 (≈ 2.08 µM)	0.4 (≈ 1.04 µM)	0.2 (≈ 0.52 µM)	1.6 (≈ 4.16 µM)	–	–	–	–	–	–	CC(O)c1ccc(NC(=O)C(=O)c2c(-c3ccccc3)cc3ccccn23)cc1 (stereo not drawn) [Example 255, N-[4-(1-Hydroxy-ethyl)-phenyl]-2-oxo-2-(2-phenyl-indolizin-3-yl)-acetamide]
0.031 (≈ 0.0774 µM)	0.004 (≈ 0.00999 µM)	0.5 (≈ 1.25 µM)	0.031 (≈ 0.0774 µM)	0.031 (≈ 0.0774 µM)	0.5 (≈ 1.25 µM)	–	–	–	–	–	–	COc1ccc(NC(=O)C(=O)c2c(-c3ccccc3)cc3ccccn23)c(OC)c1 [Example 145, N-(2,4-Dimethoxy-phenyl)-2-oxo-(2-phenyl-indolizin-3-yl)-acetamide]
